{"source": "paper PMC10799935", "about": "“Discovery of a peripheral 5HT2A antagonist as a clinical candidate for metabolic dysfunction-associated steatohepatitis” (Nature Communications, 2024)", "key": {"in vitro": {"assay": "in vitro", "conditions": "mouse, plasma"}, "5HT2A": {"target": "5HT2A (Homo sapiens, UniProt P28223)", "sequence (P28223 whole entry)": "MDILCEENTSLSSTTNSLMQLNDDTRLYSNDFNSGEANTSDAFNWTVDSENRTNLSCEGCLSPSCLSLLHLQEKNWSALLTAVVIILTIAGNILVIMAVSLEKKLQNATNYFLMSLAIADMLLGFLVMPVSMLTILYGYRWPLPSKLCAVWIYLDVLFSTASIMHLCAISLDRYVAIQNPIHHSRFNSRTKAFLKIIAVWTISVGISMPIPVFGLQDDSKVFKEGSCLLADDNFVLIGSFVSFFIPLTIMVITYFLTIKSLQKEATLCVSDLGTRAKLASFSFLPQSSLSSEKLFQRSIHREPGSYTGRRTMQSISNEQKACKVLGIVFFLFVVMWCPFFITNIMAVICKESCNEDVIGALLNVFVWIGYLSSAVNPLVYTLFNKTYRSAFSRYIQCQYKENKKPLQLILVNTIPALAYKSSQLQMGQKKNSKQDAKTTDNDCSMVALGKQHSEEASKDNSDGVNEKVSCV", "assay": "5HT subtype antagonism assay (selectivity panel): 5HT2A", "conditions": "concentration not given"}, "[1]": {"system": "CDAHFD-fed C57BL/6 J mice", "assay": "CDAHFD mice: Sirius red staining (fibrotic area);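 on Sirius red staining (fibrotic area), individual mouse: percent of liver section area positive for Sirius red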", "type": "in vivo, mouse", "design": "Sirius red staining (fibrotic area), individual mouse / Sirius red staining (fibrotic area), Average: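 percent of liver section area positive for Sirius red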", "conditions": "for Sirius red staining (fibrotic area), Average / Sirius red staining (fibrotic area), individual mouse: CDAHFD mice; for Sirius red staining (fibrotic area), Average: group average n=5, CDAHFD+Vehicle 5.533, Vehicle 0.905; for Sirius red staining (fibrotic area), individual mouse: individual animals No. 1-5 (Fig.4e)", "description": "C57BL/6 J male mice were purchased from the Japan SLC. Inc (Hamamatsu, Japan). Mice (5 weeks old) were fed Teklad Certitied Irradiated Global 18% protein rodent diet purchased from Dooyeol Biotech Co. Ltd (Seoul, South Korea) during the acclimation period. The liver fibrosis/inflammation-induced groups were CDAHFD-fed (A06071302, Research diet). […] All animal experiments complied with the relevant ethical regulations.\nMouse liver tissues were fixed in 4% formalin solution (Sigma–Aldrich, St. Louis, MO, USA) and embedded in paraffin. 4-μm-thick liver sections were deparaffinized in xylene, and rehydrated through descending grades of ethanol. To evaluate liver fibrosis, sections were stained with Sirius red solution and subjected to immunohistochemical staining. Tissue sections, after deparaffinization, underwent a 16-hour incubation in a solution containing 0.1% Direct Red 80 (365548, Sigma-Aldrich) dissolved in Picric acid (P-201, Spectrum Chemical, CA, USA) for Sirius red staining. The sections were briefly immersed in a 0.01 N HCl solution (1129, Ducksan, Republic of Korea) for 2 min. and then rinsed with distilled water for destaining. Subsequently, the sections underwent dehydration through […] grades of ethanol. Immunohistochemical staining was performed using the Polyview Plus HRP-DAB (anti-Rabbit) Kit (ENZ-KIT159-0150, ENZO Life Science, NY, USA) following the manufacturers’ instructions. Deparaffinized sections were boiled in IHC-TekTM Epitope Retrieval solution (IW-1100, IHCWORLD, MD, USA) for 45 min., cooled for 1 h, incubated in a 3% H2O2 solution (69355-0350, JUNSEI, Japan) for 15 min., washed, and then incubated overnight with primary antibodies (α-SMA, ab5694, Abcam, 1:500 dilution; TNF-α, ab6671, Abcam, 1:100 dilution and IL-1β, ab9722, Abcam, 1:100 dilution). Subsequently, the sections were treated with Polyview Plus HRP for 2 h and developed with DAB chromogen/substrate. Stained […] sections were confirmed by light microscopy (Olympus BX53 upright microscope, Tokyo, Japan). The degree of hepatic fibrosis and immunohistochemical staining was quantified by morphometric analysis of stained liver sections using NIH ImageJ software."}, "5HT3": {"target": "5HT3 (Homo sapiens, UniProt P46098)", "sequence (P46098 24-478)": "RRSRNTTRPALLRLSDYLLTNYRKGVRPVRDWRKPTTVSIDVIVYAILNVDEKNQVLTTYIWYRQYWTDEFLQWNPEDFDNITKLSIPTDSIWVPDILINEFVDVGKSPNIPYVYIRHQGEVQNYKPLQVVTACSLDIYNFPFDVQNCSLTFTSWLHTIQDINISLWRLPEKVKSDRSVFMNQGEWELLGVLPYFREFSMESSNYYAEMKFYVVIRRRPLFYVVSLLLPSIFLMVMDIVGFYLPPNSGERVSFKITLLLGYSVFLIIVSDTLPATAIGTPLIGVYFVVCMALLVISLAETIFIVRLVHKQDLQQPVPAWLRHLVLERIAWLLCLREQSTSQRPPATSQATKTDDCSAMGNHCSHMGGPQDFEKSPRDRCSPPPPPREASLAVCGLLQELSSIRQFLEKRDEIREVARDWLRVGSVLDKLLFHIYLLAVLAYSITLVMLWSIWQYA", "assay": "5HT subtype selectivity: 5HT3", "type": "cell-based", "conditions": "concentration not given", "procedure": "The derivatives were evaluated at a concentration of 1 μM for their antagonist activity on the 5HT2A receptor (Tables 1–3)[33],[34]. Human 5HT2A stably transfected HEK293 cells (a type of cell derived from kidney embryos)[20] were seeded in a 96-well plate (Costar; 3603) at a density of 9 × 10^4 in 100 μL of minimum essential medium (Welgene; LM007-86) containing 10% dialyzed fetal bovine serum (Gibco; 30067–334) and 1% penicillin/streptomycin (Gibco; 15140-122) and kept in a 37 °C incubator for 24 h. The cells were stained with 100 μL of cytosolic calcium dye using the FLIPR calcium 6 assay solution (Molecular devices, #R8190) supplemented with 2.5 mM probenecid (Sigma; P8761) and incubated for 1 h at 37 °C. After 1 h, the designated amount of the compound was treated in each well and incubated for another 1 h at 37 °C. Then, the cells were loaded in a Flexstation 3 microplate reader (Molecular Devices; FlexStaion) and 50 μL of 5 μM 5HT (serotonin hydrochloride, Sigma; H9523) was injected from a source plate (Nunc 96-well polystyrene conical bottom MicroWell Plate, Thermo; 249662) and the fluorescence intensity (Ex/Em-485nm/ 525 nm) was measured. (Supplementary Fig. 5) For determining the IC50 values of other 5HT subtypes, an Inhibition assay was performed by Eurofins Cerep (Study ID: FR095-0014987, FR095-0016438). […]"}, "[2]": {"assay": "Hepatocyte stability test, rat", "type": "in vitro ADME", "conditions": "male, Sprague Dawley, cryopreserved hepatocytes, pH 7.4, read-out: Hepatocyte stability (% remaining after 3 h)", "procedure": "Hepatocyte incubations for the test compound (10 μM final concentration, n = 2 per each time point) were carried out in mouse, rat, dog, monkey and human cryopreserved hepatocytes, resuspended at a density of 0.5 million cells/ml of modified Krebs-Henseleit buffer (KHB). The information regarding the hepatocytes used in the experiment is as follows: liverPool® 10-donor mixed gender human (BioIVT, Cat.No. X008001, lot EAV), male cynomolgus monkey (BioIVT, Cat.No. M00305, lot COJ), male Beagle dog (BioIVT, Cat.No. M00205, lot USY), male Sprague Dawley rat (BioIVT, Cat.No. M00005, lot TQE) and male CD1 mouse (BioIVT, Cat.No.005052, lot LFF). In addition, the compound was also incubated with blank KHB. The final concentration of solvent (DMSO) was 0.1% of the final volume. The incubations were performed for 3 hours at 37°C and pH 7.4. Reactions were terminated at 0 and 180 minutes by the addition of 3 volumes of stop solution (acetonitrile/methanol (2:1, v/v) containing internal standard–diclofenac at 100 ng/ml). Samples (compound spiked buffer and compound spiked hepatocytes, as well as blank samples, i.e. hepatocytes with the same DMSO%) were then centrifuged and aliquots were transferred to 96-deep micronic tubes and frozen at -80 °C until LC-MS/MS analysis. […]"}}, "note": "Values joined by “and” are separate entries in the source; they are usually repeats but may differ in a detail not shown here. Equal entries are not always repeated."}
{"smiles": "Cc1nc2n(c(=O)c1CCN1CCC(=C3c4ccc(Cl)cc4CCc4cccnc43)CC1)CCCC2O", "note": "(stereo not drawn) [Compound 11c]", "values": [{"measurement": "remaining at 4 h", "setting": "in vitro", "value": "> 99.9", "unit": "%"}, {"measurement": "Selectivity 2 A: % inhibition", "setting": "5HT2A", "value": 102, "unit": "%"}, {"measurement": "Sirius red staining (fibrotic area), Average", "setting": "[1]; 11c 5 mpk", "value": 3.015}, {"measurement": "Sirius red staining (fibrotic area), individual mouse", "setting": "[1]; 11c 5 mpk", "value": "3.008 and 1.579 and 3.604 and 3.231 and 3.651"}, {"measurement": "Sirius red staining (fibrotic area), Average", "setting": "[1]; 11c 10mpk", "value": 3.818}, {"measurement": "Sirius red staining (fibrotic area), individual mouse", "setting": "[1]; 11c 10mpk", "value": "2.883 and 3.981 and 4.409 and 4.507 and 3.312"}, {"measurement": "collagen accumulation in liver tissue (Sirius red staining)", "setting": "[1]; CDAHFD-fed 11c vs CDAHFD-fed vehicle group", "value": "significant decrease"}, {"measurement": "Selectivity 3: % inhibition", "setting": "5HT3", "value": -1, "unit": "%"}, {"measurement": "remaining at 3 h, 10 μM", "setting": "[2]", "value": 68.9, "unit": "%"}]}
